Publication PMC7435868, “Structure-Based Virtual Screening, Synthesis and Biological Evaluation of Potential FAK-FAT Domain Inhibitors for Treatment of Metastatic Cancer” (Molecules, 2020)
Where a name gives a salt, the structure may show the parent alone.

System: not listed separately
Assay: Turbidimetric aqueous solubility
Assay type: physicochemical
Conditions: buffered aqueous solution (PBS pH 7.4, 1% DMSO), 37 °C, 2 h
Procedure: Both the estimated precipitation range (lower and upper bound) and a mid-range value were measured. Nicardipine and pyrene were used as control compounds.
The test compound was diluted in buffer to give a range of concentrations (1, 3, 10, 30, and 100 μM; final DMSO concentration 1%) and incubated at 37 °C for 2 hr.
The test compound (10 mM in DMSO) was serially diluted to give solutions of 0.1, 0.3, 1, and 3 mM in DMSO. Each test compound concentration was then further diluted 1 to 100 in buffer (typically 0.01 M phosphate buffered saline pH 7.4) so that the final DMSO concentration was 1%, and the final test compound concentrations were 1, 3, 10, 30, and 100 μM. The experiment was performed at 37 °C and each concentration was incubated in 7 replicate wells. The plates were incubated for 2 h at 37 °C before the absorbance was measured at 620 nm. Nicardipine and pyrene were included as control compounds. The solubility of nicardipine is pH dependent whereas the solubility of pyrene is pH independent.
An estimated precipitation range (lower and upper bound) and a calculated mid-range value were returned, along with any relevant comments, in the form of an Excel spreadsheet.

For `COC(=O)C1=C(C)NC(C)=C(C(=O)OCCN(C)Cc2ccccc2)C1c1cccc([N+](=O)[O-])c1` (stereo not shown) [nicardipine, reference compound], which “Estimated Precipitation Range, Upper Bound” value is on record?
Its value is 30 µM.

With `CC(C)(C)c1ccc(C(CN)c2ccc(SC(F)(F)F)cc2)cc1.Cl` (stereo not shown) [5b, 2-(4-tert-butylphenyl)-2-(4-(trifluoromethyl)thiophenyl)ethan-1-aminium chloride] as the compound, how does the “Estimated Precipitation Range, Calculated Mid-Range” value read?
Its value is 11.5 µM.

What about the “Estimated Precipitation Range, Lower Bound” value of the same compound?
The value was 3 µM.

And the “Estimated Precipitation Range, Upper Bound” value?
The value was 20 µM.

Same assay, conditions: turbidimetric, 37 °C, 2 h

With `CC(C)(C)c1ccc(C(CN)c2ccc(SC(F)(F)F)cc2)cc1.Cl` (stereo not shown) [5b, 2-(4-tert-butylphenyl)-2-(4-(trifluoromethyl)thiophenyl)ethan-1-aminium chloride] as the compound, how does the “Aqueous solubility (in words)” value read?
Its value is “relatively reduced solubility comparable to pyrene”.

System: MIAPaCa2
Assay: Cell viability assay (CellTiter Glo), MIAPaCa2
Assay type: cell-based
Conditions: Homo sapiens, MIA PaCa-2, 72 h incubation, mean of independent triplicate experiments, read-out: In vitro anti-proliferative activity IC50, MIAPaCa2
Procedure: (§1) The antiproliferative activity of compound I as well as its newly synthesised analogues (5a–i) was evaluated in vitro against the three human breast cancer cell lines MDA-MB-231 (TNBC), T47D (ER^+, HER^−), and BT474 (ER^+, HER^+) as well as a human pancreatic cancer cell line MIAPaCa2. The seeding of the corresponding cell lines started one day before incubation, which lasted for 72 h with the different concentrations of the tested compounds. CellTiter Glo reagent (25 μL) was added to the cell plate. The luminescence was analysed after 10 min using a PerkinElmer Envision instrument. The test compounds were used at ten different triplicate concentrations in half log increments up to 100 μM.

With `COc1ccc(C(CN)c2ccc(OC)cc2)cc1` [5i, 2,2-Bis(4-methoxyphenyl)ethan-1-aminium chloride] as the compound, how does the IC50 read?
The IC50 was 49 µM.

For `CC(C)(C)c1ccc(C(CN)c2ccccc2F)cc1` (stereo not shown) [5d, 2-(4-tert-butylphenyl)-2-(2-fluorophenyl)ethan-1-aminium chloride], which IC50 is on record?
Its IC50 is 15.8 µM.

With `CC(C)(C)c1ccc(C(CN)c2cccc(F)c2)cc1` (stereo not shown) [5e, 2-(4-tert-butylphenyl)-2-(3-fluorophenyl)ethan-1-aminium chloride] as the compound, how does the IC50 read?
Its IC50 is 17 µM.

For `CN(C)CCN(Cc1ccc(Cl)cc1)c1ccccn1` [C4, chloropyramine hydrochloride, reference compound], which IC50 is on record?
Its IC50 is over 100 µM.

With `CC(C)(C)c1ccc(C(CN)c2ccc(SC(F)(F)F)cc2)cc1.Cl` (stereo not shown) [5b, 2-(4-tert-butylphenyl)-2-(4-(trifluoromethyl)thiophenyl)ethan-1-aminium chloride] as the compound, how does the IC50 read?
The IC50 was 15.7 µM.

System: MDA-MB-231
Assay: Cell viability assay (CellTiter Glo), MDA-MB-231
Assay type: cell-based
Conditions: Homo sapiens, 72 h incubation, mean of independent triplicate experiments, read-out: In vitro anti-proliferative activity IC50, MDA-MB-231 ER- PR- HER-
Procedure: as §1

Which IC50 does the source give for `COc1ccc(C(CN)c2ccc(OC)cc2)cc1` [5i, 2,2-Bis(4-methoxyphenyl)ethan-1-aminium chloride] here?
The IC50 was 46.2 µM.

For `CC(C)(C)c1ccc(C(CN)c2ccccc2F)cc1` (stereo not shown) [5d, 2-(4-tert-butylphenyl)-2-(2-fluorophenyl)ethan-1-aminium chloride], which IC50 is on record?
The IC50 was 14.8 µM.

With `CC(C)(C)c1ccc(C(CN)c2cccc(F)c2)cc1` (stereo not shown) [5e, 2-(4-tert-butylphenyl)-2-(3-fluorophenyl)ethan-1-aminium chloride] as the compound, how does the IC50 read?
Its IC50 is 14.1 µM.

Which IC50 does the source give for `CN(C)CCN(Cc1ccc(Cl)cc1)c1ccccn1` [C4, chloropyramine hydrochloride, reference compound] here?
Its IC50 is 99 µM.

Which IC50 does the source give for `CC(C)(C)c1ccc(C(CN)c2ccc(SC(F)(F)F)cc2)cc1.Cl` (stereo not shown) [5b, 2-(4-tert-butylphenyl)-2-(4-(trifluoromethyl)thiophenyl)ethan-1-aminium chloride] here?
The IC50 was 11.8 µM.

System: T47D
Assay: Cell viability assay (CellTiter Glo), T47D
Assay type: cell-based, human
Conditions: Homo sapiens, T47D, 72 h, 72 h incubation, mean of independent triplicate experiments, read-out: In vitro anti-proliferative activity IC50, T47D ER+ PR+/- HER-
Procedure: as §1

With `COc1ccc(C(CN)c2ccc(OC)cc2)cc1` [5i, 2,2-Bis(4-methoxyphenyl)ethan-1-aminium chloride] as the compound, how does the IC50 read?
The IC50 was 43.9 µM.

With `CC(C)(C)c1ccc(C(CN)c2ccccc2F)cc1` (stereo not shown) [5d, 2-(4-tert-butylphenyl)-2-(2-fluorophenyl)ethan-1-aminium chloride] as the compound, how does the IC50 read?
The IC50 was 14.7 µM.

For `CC(C)(C)c1ccc(C(CN)c2cccc(F)c2)cc1` (stereo not shown) [5e, 2-(4-tert-butylphenyl)-2-(3-fluorophenyl)ethan-1-aminium chloride], which IC50 is on record?
Its IC50 is 14.4 µM.

With `CN(C)CCN(Cc1ccc(Cl)cc1)c1ccccn1` [C4, chloropyramine hydrochloride, reference compound] as the compound, how does the IC50 read?
Its IC50 is over 100 µM.

Which IC50 does the source give for `CC(C)(C)c1ccc(C(CN)c2ccc(SC(F)(F)F)cc2)cc1.Cl` (stereo not shown) [5b, 2-(4-tert-butylphenyl)-2-(4-(trifluoromethyl)thiophenyl)ethan-1-aminium chloride] here?
The IC50 was 11.4 µM.

Biological target: hERG potassium channel (Homo sapiens, UniProt Q12809)
Assay: hERG channel inhibition (IonWorks automated patch clamp, CHO-hERG cells)
Conditions: not given

Chain of hERG potassium channel (Q12809 whole entry): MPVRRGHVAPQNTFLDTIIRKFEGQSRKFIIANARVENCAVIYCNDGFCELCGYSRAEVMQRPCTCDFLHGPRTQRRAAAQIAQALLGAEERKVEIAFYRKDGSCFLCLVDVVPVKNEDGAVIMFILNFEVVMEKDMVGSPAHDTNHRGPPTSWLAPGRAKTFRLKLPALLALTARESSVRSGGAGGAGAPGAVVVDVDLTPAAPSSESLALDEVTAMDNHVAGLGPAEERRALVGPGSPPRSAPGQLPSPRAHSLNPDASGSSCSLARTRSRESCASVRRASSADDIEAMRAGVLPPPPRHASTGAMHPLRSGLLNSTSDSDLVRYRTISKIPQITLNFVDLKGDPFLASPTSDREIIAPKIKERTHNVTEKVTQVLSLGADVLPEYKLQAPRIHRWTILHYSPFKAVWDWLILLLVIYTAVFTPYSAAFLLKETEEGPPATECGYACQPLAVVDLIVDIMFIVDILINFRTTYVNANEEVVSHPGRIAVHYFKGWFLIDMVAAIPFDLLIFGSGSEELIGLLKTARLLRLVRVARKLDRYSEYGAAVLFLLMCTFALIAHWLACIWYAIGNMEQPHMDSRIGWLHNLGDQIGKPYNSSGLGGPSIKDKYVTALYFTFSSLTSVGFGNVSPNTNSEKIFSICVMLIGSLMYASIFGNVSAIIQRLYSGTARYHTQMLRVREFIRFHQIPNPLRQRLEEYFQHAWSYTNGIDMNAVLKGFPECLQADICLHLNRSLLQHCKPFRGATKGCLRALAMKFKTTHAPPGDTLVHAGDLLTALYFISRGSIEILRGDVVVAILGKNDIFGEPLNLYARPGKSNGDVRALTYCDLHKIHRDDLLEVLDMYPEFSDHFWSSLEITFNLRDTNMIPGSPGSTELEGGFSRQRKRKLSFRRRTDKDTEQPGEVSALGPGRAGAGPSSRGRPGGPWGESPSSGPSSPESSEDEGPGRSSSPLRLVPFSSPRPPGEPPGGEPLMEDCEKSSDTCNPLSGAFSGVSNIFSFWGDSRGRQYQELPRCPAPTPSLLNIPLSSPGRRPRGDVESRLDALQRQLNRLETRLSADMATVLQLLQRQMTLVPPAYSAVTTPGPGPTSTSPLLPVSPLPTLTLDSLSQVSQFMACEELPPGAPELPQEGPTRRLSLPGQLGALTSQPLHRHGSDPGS

Which IC50 does the source give for `COc1ccc(C(CN)c2ccc(OC)cc2)cc1` [5i, 2,2-Bis(4-methoxyphenyl)ethan-1-aminium chloride] here?
Its IC50 is 6.01 µM.

System: MDA-MB-231, T47D, BT474, and MIAPaCa2
Assay: Cell viability assay, statements across the four cell lines
Assay type: cell-based, human
Conditions: three human breast and one pancreatic cancer cell line, up to 100 μM
Procedure: as §1

For `CN(C)CCN(Cc1ccc(Cl)cc1)c1ccccn1` [C4, chloropyramine hydrochloride, reference compound], which “Anti-proliferative activity (in words) across the four cell lines” value is on record?
Its value is “did not show any significant anti-proliferative activity up to a concentration of 100 μM”.

System: BT474
Assay: Cell viability assay (CellTiter Glo), BT474
Assay type: cell-based, human
Conditions: Homo sapiens, BT-474, 72 h, 72 h incubation, mean of independent triplicate experiments, read-out: In vitro anti-proliferative activity IC50, BT474 ER+ PR+/- HER+
Procedure: as §1

With `COc1ccc(C(CN)c2ccc(OC)cc2)cc1` [5i, 2,2-Bis(4-methoxyphenyl)ethan-1-aminium chloride] as the compound, how does the IC50 read?
Its IC50 is 44.5 µM.

Which IC50 does the source give for `CC(C)(C)c1ccc(C(CN)c2ccccc2F)cc1` (stereo not shown) [5d, 2-(4-tert-butylphenyl)-2-(2-fluorophenyl)ethan-1-aminium chloride] here?
The IC50 was 14.8 µM.

Which IC50 does the source give for `CC(C)(C)c1ccc(C(CN)c2cccc(F)c2)cc1` (stereo not shown) [5e, 2-(4-tert-butylphenyl)-2-(3-fluorophenyl)ethan-1-aminium chloride] here?
The IC50 was 15 µM.

Which IC50 does the source give for `CN(C)CCN(Cc1ccc(Cl)cc1)c1ccccn1` [C4, chloropyramine hydrochloride, reference compound] here?
The IC50 was over 100 µM.

With `CC(C)(C)c1ccc(C(CN)c2ccc(SC(F)(F)F)cc2)cc1.Cl` (stereo not shown) [5b, 2-(4-tert-butylphenyl)-2-(4-(trifluoromethyl)thiophenyl)ethan-1-aminium chloride] as the compound, how does the IC50 read?
The IC50 was 12.5 µM.

System: not given
Assay: not given
Design: method as in PMID 19610651, PMID 24780592
Conditions: cited from earlier work

For `CN(C)CCN(Cc1ccc(Cl)cc1)c1ccccn1` [C4, chloropyramine hydrochloride, reference compound], which “Concentration at which anticancer activity is displayed” value is on record?
The value was over 100 µM.
